From the supplement of paper PMC12137928 come the findings set out here.

In assay [1] the test system is HCT116. The assay can be described thus: efficacy (maximum % inhibition of viability vs DMSO); higher = more cytotoxic. Particulars: 72 h. Put shortly:
(§1)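 IC50 and maximal efficacy were derived from four-parameter Hill curve fits. The underlying CellTiter-Glo luminescence was scaled so that vehicle equals 0% and positive control equals -100%, and was then pattern-corrected. HCT116 cells had been seeded in 1536-well plates at 250 per well.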

The test system of assay [2] is HCT116. Particulars: 72 h. The method, boiled down:
as §1

Where a name gives a salt, the structure may show the parent alone.

As for `COC(=O)C[C@](O)(CCCC(C)(C)O)C(=O)O[C@@H]1C(OC)=C[C@]23CCCN2CCc2cc4c(cc2[C@H]13)OCO4` [Omacetaxine mepesuccinate], the efficacy in assay [1] (ICRF193 0 nM) is 65.6%; in assay [1] (ICRF193 200 nM), 66.3%. The IC50 cell viability turned out to be 0.0651 µM in assay [2] (ICRF193 0 nM) and 0.0461 µM in assay [2] (ICRF193 200 nM).
In the case of `O=C(N[C@H]1CCS[C@H]2CCC[C@@H](C(=O)O)N2C1=O)[C@@H](S)Cc1ccccc1` [Omapatrilat], in assay [1] (ICRF193 200 nM), the efficacy worked out at 86.5%. The IC50 cell viability is greater than 45.8 µM in assay [2] (ICRF193 0 nM) and 6.51 µM in assay [2] (ICRF193 200 nM).
As for `C/C(=C(/OCCOc1ccc(Cl)cc1)c1ccc(Cl)cc1Cl)n1ccnc1` [Omoconazole], the efficacy in assay [1] (ICRF193 0 nM) is 41.1%; in assay [1] (ICRF193 200 nM), 62.4%. Also, the IC50 cell viability was found to be 18.3 µM in assay [2] (ICRF193 0 nM) and 23.1 µM in assay [2] (ICRF193 200 nM).
Consider `Cc1c(Cl)c(C)[n+]([O-])c(Cl)c1-c1noc(-c2cc(O)c(O)c([N+](=O)[O-])c2)n1` [Opicapone], for which the efficacy in assay [1] (ICRF193 200 nM) was 98.7%. The IC50 cell viability in assay [2] (ICRF193 0 nM) is greater than 45.8 µM; in assay [2] (ICRF193 200 nM) it was 29.1 µM.
Turning to `COc1ccc2c(c1)OC(C)(C)C(c1ccccc1)C2c1ccc(OCCN2CCCC2)cc1` (stereo not given) [Ormeloxifene], the efficacy in assay [1] (ICRF193 0 nM) stood at 91%; in assay [1] (ICRF193 200 nM), 81.5%. The IC50 cell viability in assay [2] (ICRF193 0 nM) came out at 20.6 µM; in assay [2] (ICRF193 200 nM) it was 18.3 µM.
Take `C=CC(=O)Nc1cc(Nc2nccc(-c3cn(C)c4ccccc34)n2)c(OC)cc1N(C)CCN(C)C` [Osimertinib mesylate]: the results for the efficacy in assay [1] (ICRF193 0 nM) and in assay [1] (ICRF193 200 nM) were 142% and 101%, respectively. For the same compound, the IC50 cell viability in assay [2] (ICRF193 0 nM) amounted to 23.1 µM; in assay [2] (ICRF193 200 nM), 16.4 µM.
In the case of `C[C@@H]1O[C@@H](O[C@H]2C[C@@H](O)[C@]3(CO)[C@H]4[C@H](O)C[C@]5(C)[C@@H](C6=CC(=O)OC6)CC[C@]5(O)[C@@H]4CC[C@]3(O)C2)[C@H](O)[C@H](O)[C@H]1O` [Ouabain octahydrate], the efficacy came out at 104% in assay [1] (ICRF193 0 nM) and 84.4% in assay [1] (ICRF193 200 nM). In addition, the IC50 cell viability in assay [2] (ICRF193 0 nM) is 0.116 µM; in assay [2] (ICRF193 200 nM) it was 0.13 µM.
On to `O=c1[nH]c2ccccc2n1CCCN1CCN(C(c2ccccc2)c2ccccc2)CC1` [Oxatomide], for which the values for the efficacy in assay [1] (ICRF193 0 nM) and in assay [1] (ICRF193 200 nM) were 73.2% and 84.5%, respectively. The IC50 cell viability came out at 18.3 µM in assay [2] (ICRF193 0 nM) and 29.1 µM in assay [2] (ICRF193 200 nM).
Take `NC(=O)N1c2ccccc2CC(=O)c2ccccc21` [Oxcarbazepine]: in assay [1] (ICRF193 0 nM), the efficacy amounted to 52.3%. Further, the IC50 cell viability was 18.3 µM in assay [2] (ICRF193 0 nM) and greater than 45.8 µM in assay [2] (ICRF193 200 nM).
Turning to `CN(C(=O)CN(CCO)CC(=O)N(C)C(C)(C)Cc1ccccc1)C(C)(C)Cc1ccccc1` [Oxethazaine], the efficacy is 104% in assay [1] (ICRF193 0 nM) and 97.5% in assay [1] (ICRF193 200 nM). Further, the IC50 cell viability in assay [2] (ICRF193 0 nM) amounted to 16.4 µM; in assay [2] (ICRF193 200 nM), 13 µM.
With `COC(=O)Nc1nc2cc([S+]([O-])c3ccccc3)ccc2[nH]1` (stereo not given) [Oxfendazole], the efficacy turned out to be 44.2% in assay [1] (ICRF193 0 nM) and 49.7% in assay [1] (ICRF193 200 nM). Further, the IC50 cell viability in assay [2] (ICRF193 0 nM) worked out at 14.6 µM; in assay [2] (ICRF193 200 nM), 2.06 µM.
Taken in the same sequence, the figures for `CCCOc1ccc2[nH]c(NC(=O)OC)nc2c1` [Oxibendazole] were 43%, 40.1%, 1.3 µM and 0.183 µM.
With `Clc1ccc(CO/N=C(\Cn2ccnc2)c2ccc(Cl)cc2Cl)c(Cl)c1` [Oxiconazole nitrate], the efficacy in assay [1] (ICRF193 0 nM) amounted to 104%; in assay [1] (ICRF193 200 nM), 101%. Further, the IC50 cell viability in assay [2] (ICRF193 0 nM) is 29.1 µM; in assay [2] (ICRF193 200 nM), 20.6 µM.
Taken in the same sequence, the figures for `CCCCC1C(=O)N(c2ccccc2)N(c2ccc(O)cc2)C1=O` (stereo not given) [Oxyphenbutazone] were 103%, 55.1%, 11.6 µM and 9.2 µM.
The corresponding values for `CCOC(=O)O[C@]1(C(=O)COC(=O)CC)CC[C@H]2[C@@H]3CCC4=CC(=O)C=C[C@]4(C)[C@H]3[C@@H](O)C[C@@]21C` [PREDNICARBATE] are 108%, 93.8%, 16.4 µM and 29.1 µM.
Taken in the same sequence, the figures for `NC(=O)[C@@H]1CCCN1C(=O)[C@H](Cc1c[nH]cn1)NC(=O)[C@@H]1CCC(=O)N1` [PROTIRELIN] were 69.8%, 64.8%, 29.1 µM and 25.9 µM.
Consider `O=C(O)c1cccc(-c2noc(-c3ccccc3F)n2)c1` [PTC-124], for which, in assay [1] (ICRF193 200 nM), the efficacy is 46.5%. Besides, the IC50 cell viability was greater than 45.8 µM in assay [2] (ICRF193 0 nM) and 10.3 µM in assay [2] (ICRF193 200 nM).
On to `Cc1cc(/C=C/c2ccc3cc(N(C)C)ccc3[n+]2C)c(C)n1-c1ccccc1` [PYRVINIUM PAMOATE], for which the figures for the efficacy in assay [1] (ICRF193 0 nM) and in assay [1] (ICRF193 200 nM) were 111% and 93.2%, respectively. The IC50 cell viability in assay [2] (ICRF193 0 nM) was 20.6 µM; in assay [2] (ICRF193 200 nM), 18.3 µM.
The corresponding values for `CC(=O)O[C@H]1C(=O)[C@@]2(C)[C@H]([C@H](OC(=O)c3ccccc3)[C@]3(O)C[C@H](OC(=O)[C@H](O)[C@@H](NC(=O)c4ccccc4)c4ccccc4)C(C)=C1C3(C)C)[C@]1(OC(C)=O)CO[C@@H]1C[C@@H]2O` [Paclitaxel] are 71.1%, 61.8%, 0.0058 µM and 0.00461 µM.
The corresponding values for `CC(=O)c1c(C)c2cnc(Nc3ccc(N4CCNCC4)cn3)nc2n(C2CCCC2)c1=O` [Palbociclib] are 98.3%, 104%, 29.1 µM and 16.4 µM.
In the case of `CNCCC=C1c2ccccc2CCc2ccccc21` [Pamelor], the efficacy in assay [1] (ICRF193 200 nM) amounted to 51.6%. Further, the IC50 cell viability in assay [2] (ICRF193 0 nM) was greater than 45.8 µM; in assay [2] (ICRF193 200 nM), 29.1 µM.
As for `CCOC(=O)Cn1cccc1-c1nc(-c2ccc(OC)cc2)c(-c2ccc(OC)cc2)s1` [Pamicogrel], the figures for the efficacy in assay [1] (ICRF193 0 nM) and in assay [1] (ICRF193 200 nM) were 89.1% and 86.7%, respectively. In addition, the figures for the IC50 cell viability in assay [2] (ICRF193 0 nM) and in assay [2] (ICRF193 200 nM) were 5.8 µM and 5.17 µM, respectively.
For the compound `Cc1[nH]c2ccccc2c1CCNCc1ccc(/C=C/C(=O)NO)cc1` [Panobinostat], the efficacy in assay [1] (ICRF193 0 nM) was 95.6%; in assay [1] (ICRF193 200 nM) it was 94.8%. Besides, the figures for the IC50 cell viability in assay [2] (ICRF193 0 nM) and in assay [2] (ICRF193 200 nM) were 0.0651 µM and 0.058 µM, respectively.
As to `COc1ccc(Cc2nccc3cc(OC)c(OC)cc23)cc1OC` [Papaverine hydrochloride], the efficacy in assay [1] (ICRF193 200 nM) is 41.6%. Further, the IC50 cell viability was greater than 45.8 µM in assay [2] (ICRF193 0 nM) and 3.66 µM in assay [2] (ICRF193 200 nM).
Turning to `C=C1C(=O)O[C@H]2[C@H]1CC/C(C)=C/CC[C@@]1(C)O[C@@H]21` [Parthenolide], the efficacy in assay [1] (ICRF193 0 nM) is 93.1%; in assay [1] (ICRF193 200 nM) it was 95.3%. Moreover, the values for the IC50 cell viability in assay [2] (ICRF193 0 nM) and in assay [2] (ICRF193 200 nM) were 6.51 µM and 8.2 µM, respectively.
For `Cc1ccc(Nc2nccc(N(C)c3ccc4c(C)n(C)nc4c3)n2)cc1S(N)(=O)=O` [Pazopanib], the efficacy in assay [1] (ICRF193 0 nM) was found to be 56.3%. Further, the figures for the IC50 cell viability in assay [2] (ICRF193 0 nM) and in assay [2] (ICRF193 200 nM) were 18.3 µM and greater than 45.8 µM, respectively.
Compound `CC(C)(C)NC[C@H](O)COc1ccccc1C1CCCC1` [Penbutolol sulfate] yielded an efficacy in assay [1] (ICRF193 200 nM) of 50%. Besides, the IC50 cell viability in assay [2] (ICRF193 0 nM) is greater than 45.8 µM; in assay [2] (ICRF193 200 nM), 20.6 µM.
